Assay results taken from patent publication US20220340875A1, “METHODS OF CULTURING AND/OR EXPANDING STEM CELLS AND/OR LINEAGE COMMITTED PROGENITOR CELLS USING AMIDO COMPOUNDS” (IDEAYA BIOSCIENCES, INC., priority 2018, published 2022).

These molecules were tested against T1, hAhR (Homo sapiens, UniProt P35869) (assay: AhR DRE-luciferase reporter transcriptional assay, antagonist mode (TCDD-induced)). Settings: HEPG2 DRE-Luc cells, 3 nM TCDD, 24 hour incubation, relative IC50.
T1 construct: Stably integrated DRE-luciferase cell lines were generated by transducing the both cell lines with Cignal XRE luciferase reporter (Qiagen) lentiviral particles; endogenous in cells
T1 sequence (P35869 11-848): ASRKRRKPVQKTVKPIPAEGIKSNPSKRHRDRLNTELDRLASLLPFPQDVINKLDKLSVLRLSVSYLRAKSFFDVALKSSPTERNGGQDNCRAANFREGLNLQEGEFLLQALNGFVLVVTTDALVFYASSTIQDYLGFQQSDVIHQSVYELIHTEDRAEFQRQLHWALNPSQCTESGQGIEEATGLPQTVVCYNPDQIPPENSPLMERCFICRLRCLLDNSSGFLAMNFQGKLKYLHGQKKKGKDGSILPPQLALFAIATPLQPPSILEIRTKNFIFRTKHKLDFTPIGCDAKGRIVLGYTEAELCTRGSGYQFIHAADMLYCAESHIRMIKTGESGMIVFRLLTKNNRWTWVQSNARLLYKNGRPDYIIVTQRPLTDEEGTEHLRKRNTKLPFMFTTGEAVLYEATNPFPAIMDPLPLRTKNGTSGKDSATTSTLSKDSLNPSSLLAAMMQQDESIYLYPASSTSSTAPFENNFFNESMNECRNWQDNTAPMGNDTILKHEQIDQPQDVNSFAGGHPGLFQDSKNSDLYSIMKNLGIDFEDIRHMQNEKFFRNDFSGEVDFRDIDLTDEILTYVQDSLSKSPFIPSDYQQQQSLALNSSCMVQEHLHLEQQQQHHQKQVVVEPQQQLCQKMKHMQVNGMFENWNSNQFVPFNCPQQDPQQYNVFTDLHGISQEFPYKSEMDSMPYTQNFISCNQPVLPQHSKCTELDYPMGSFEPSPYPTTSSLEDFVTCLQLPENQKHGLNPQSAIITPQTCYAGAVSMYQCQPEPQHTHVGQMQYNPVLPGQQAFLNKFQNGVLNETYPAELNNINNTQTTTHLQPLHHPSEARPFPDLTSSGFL
Type: cell-based
Method in brief: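 HepG2 cells carrying a stably integrated DRE-luciferase reporter, in OptiMEM with 0.5% FBS; semi-log compound doses added with 3 nM TCDD, 24 h incubation, firefly luciferase read-out. Percent maximal activity normalised between vehicle ± TCDD; relative IC50 taken as half-reduction between curve plateaus.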

Compound | IC50
Cc1cc(-c2ccc3cc(C(F)(F)F)ccc3n2)ccc1N(C)C(=O)C(F)(F)F [Example 081, 2,2,2-Trifluoro-N-methyl-N-(2-methyl-4-(6-(trifluoromethyl)quinolin-2-yl)phenyl)acetamide] | 1000 to 10000 nM
Cc1cc(-c2ccc3cc(F)ccc3n2)cnc1NC(=O)c1ccnn1C [Example 042, N-(5-(6-fluoroquinolin-2-yl)-3-methylpyridin-2-yl)-1-methyl-1H-pyrazole-5-carboxamide] | 500 to 1000 nM
C#Cc1ccc2nc(-c3ccc(NC(=O)c4ccnn4C)c(C)c3)ccc2c1 [Example 072, N-(4-(6-ethynylquinolin-2-yl)-2-methylphenyl)-1-methyl-1H-pyrazole-5-carboxamide] | 200 to 500 nM
Cc1cc(-c2ccc3cc(OC(F)(F)F)ccc3n2)ccc1N(C)C(=O)c1ccnn1C [Example 010, N,1-dimethyl-N-(2-methyl-4-(6-(trifluoromethoxy)quinolin-2-yl)phenyl)-1H-pyrazole-5-carboxamide] | 200 to 500 nM
Cc1cc(-c2ccc3cc(C#N)ccc3n2)ccc1NC(=O)c1ccnn1C [Example 073, N-(4-(6-cyanoquinolin-2-yl)-2-methylphenyl)-1-methyl-1H-pyrazole-5-carboxamide] | < 200 nM
COc1cc(C(=O)Nc2ccc(-c3ncc4cc(C(F)(F)F)ccc4n3)cc2C)ccn1 [Example 142, 2-methoxy-N-(2-methyl-4-(6-(trifluoromethyl)quinazolin-2-yl)phenyl)isonicotinamide] | < 200 nM
Cc1cc(-c2ncc3ccn(CC(F)(F)F)c3n2)ccc1NC(=O)c1ccnn1C [Example 091, 1-Methyl-N-(2-methyl-4-(7-(2,2,2-trifluoroethyl)-7H-pyrrolo[2,3-d]pyrimidin-2-yl)phenyl)-1H-pyrazole-5-carboxamide] | 200 to 500 nM
Cc1cc(-c2ccc3cc(F)ccc3n2)ccc1NC(=O)c1ccno1 [Example 037, N-(4-(6-fluoroquinolin-2-yl)-2-methylphenyl)isoxazole-5-carboxamide] | 500 to 1000 nM
Cc1cc(-c2ccc3cc(F)ccc3n2)ccc1NC(=O)c1cnoc1C [Example 038, N-(4-(6-fluoroquinolin-2-yl)-2-methylphenyl)-5-methylisoxazole-4-carboxamide] | 500 to 1000 nM
Cc1cc(-c2ccc3nc(C(F)(F)F)cc(C)c3n2)ccc1N(C)C(=O)c1ccnn1CCO [Example 223, 1-(2-hydroxyethyl)-N-methyl-N-[2-methyl-4-[8-methyl-6-(trifluoromethyl)-1,5-naphthyridin-2-yl]phenyl]-1H-pyrazole-5-carboxamide] | < 200 nM
Cc1cc(-c2ncc3nc(C(F)(F)F)ccc3n2)ccc1NC(=O)c1ccnn1C [Example 135, 1-methyl-N-(2-methyl-4-(6-(trifluoromethyl)pyrido[3,2-d]pyrimidin-2-yl)phenyl)-1H-pyrazole-5-carboxamide] | < 200 nM
Cc1cc(-c2ccc3cc(F)cc(Br)c3n2)ccc1NC(=O)c1ccnn1C [Example 051, N-(4-(8-bromo-6-fluoroquinolin-2-yl)-2-methylphenyl)-1-methyl-1H-pyrazole-5-carboxamide] | < 200 nM
Cc1c(N(C)C(=O)c2ccnn2C)ccc(-c2ncc3nc(C(F)(F)F)cc(C)c3n2)c1F [Example 175, N-(3-fluoro-2-methyl-4-(8-methyl-6-(trifluoromethyl)pyrido[3,2-d]pyrimidin-2-yl)phenyl)-N,1-dimethyl-1H-pyrazole-5-carboxamide] | < 200 nM
Cc1cc(-c2ccc3cc(N)ccc3n2)ccc1NC(=O)c1ccnn1C [Example 075, N-(4-(6-aminoquinolin-2-yl)-2-methylphenyl)-1-methyl-1H-pyrazole-5-carboxamide] | 1000 to 10000 nM
Cc1cc(-c2ccc3c(ccn3C)c2)ccc1NC(=O)c1ccnn1C [Example 083, 1-methyl-N-(2-methyl-4-(1-methyl-1H-indol-5-yl)phenyl)-1H-pyrazole-5-carboxamide] | 500 to 1000 nM
Cc1cc(-c2ncc3nc(C(F)(F)F)cc(C)c3n2)ccc1N(C)C(=O)c1cc(C(N)=O)nn1CC(N)=O [Example 196, 1-(2-amino-2-oxoethyl)-N5-methyl-N5-(2-methyl-4-(8-methyl-6-(trifluoromethyl)pyrido[3,2-d]pyrimidin-2-yl)phenyl)-1H-pyrazole-3,5-dicarboxamide] | 1000 to 10000 nM
Cc1cc(-c2ccc3cccc(F)c3n2)ccc1NC(=O)c1ccnn1C [Example 018, N-(4-(8-fluoroquinolin-2-yl)-2-methylphenyl)-1-methyl-1H-pyrazole-5-carboxamide] | < 200 nM
Cc1cc(-c2ccc3cc(F)ccc3n2)ccc1NC(=O)c1cnccn1 [Example 032, N-(4-(6-fluoroquinolin-2-yl)-2-methylphenyl)pyrazine-2-carboxamide] | 500 to 1000 nM
Cc1cc(-c2ccc3cc(F)ccc3n2)ccc1NC(=O)c1cncn1C [Example 034, N-(4-(6-fluoroquinolin-2-yl)-2-methylphenyl)-1-methyl-1H-imidazole-5-carboxamide] | 500 to 1000 nM
COc1cccc2ccc(-c3ccc(NC(=O)c4ccnn4C)c(C)c3)nc12 [Example 056, N-(4-(8-methoxyquinolin-2-yl)-2-methylphenyl)-1-methyl-1H-pyrazole-5-carboxamide] | 500 to 1000 nM
Cc1cc(-c2ccc3cc(Br)ccc3n2)ccc1NC(=O)c1ccnn1C [Example 064, N-(4-(6-bromoquinolin-2-yl)-2-methylphenyl)-1-methyl-1H-pyrazole-5-carboxamide] | 200 to 500 nM
Cc1cc(-c2ccc3cc(F)ccc3n2)ccc1NC(=O)C1CCOCC1 [Example 025, N-(4-(6-fluoroquinolin-2-yl)-2-methylphenyl)tetrahydro-2H-pyran-4-carboxamide] | 1000 to 10000 nM
Cc1cc(-c2ccc3nc(C(F)(F)F)ncc3n2)ccc1NC(=O)c1ccnn1C [Example 139, 1-methyl-N-(2-methyl-4-(2-(trifluoromethyl)pyrido[3,2-d]pyrimidin-6-yl)phenyl)-1H-pyrazole-5-carboxamide] | 500 to 1000 nM

Further lines, results first:

IC50 | Compound
< 200 nM | Cc1cc(-c2ncc3cc(C(F)(F)F)ccc3n2)ccc1NC(=O)c1ccncc1 [Example 115, N-(2-methyl-4-(6-(trifluoromethyl)quinazolin-2-yl)phenyl)isonicotinamide]
< 200 nM | Cc1cc(-c2ncc3cc(C(F)(F)F)ccc3n2)ccc1N(C)C(=O)c1ccnn1CCN1CCOCC1 [Example 157, N-methyl-N-(2-methyl-4-(6-(trifluoromethyl)quinazolin-2-yl)phenyl)-1-(2-morpholinoethyl)-1H-pyrazole-5-carboxamide]
< 200 nM | Cc1cc(-c2ncc3cc(C(F)(F)F)cc(C)c3n2)ccc1N(C)C(=O)c1ccnn1C [Example 111, N,1-dimethyl-N-(2-methyl-4-(8-methyl-6-(trifluoromethyl)quinazolin-2-yl)phenyl)-1H-pyrazole-5-carboxamide]
< 200 nM | COC(=O)N(C)c1ccc(-c2ncc3cc(C(F)(F)F)ccc3n2)cc1C [Example 128, methyl methyl(2-methyl-4-(6-(trifluoromethyl)quinazolin-2-yl)phenyl)carbamate]
< 200 nM | Cc1cc(C(=O)Nc2ccc(-c3ncc4cc(C(F)(F)F)ccc4n3)cc2C)c(C)cn1 [Example 125, 2,5-dimethyl-N-(2-methyl-4-(6-(trifluoromethyl)quinazolin-2-yl)phenyl)isonicotinamide]
1000 to 10000 nM | Cc1cc(-c2ncc3cc(C(F)(F)F)ccc3n2)ccc1N(C)C(=O)c1nnn[nH]1 [Example 133, N-methyl-N-(2-methyl-4-(6-(trifluoromethyl)quinazolin-2-yl)phenyl)-1H-tetrazole-5-carboxamide]
< 200 nM | Cc1cc(-c2ncc3cc(C(F)(F)F)ccc3n2)ccc1N(C)C(=O)c1ncncc1C [Example 124, N,5-dimethyl-N-(2-methyl-4-(6-(trifluoromethyl)quinazolin-2-yl)phenyl)pyrimidine-4-carboxamide]
500 to 1000 nM | Cc1cc(-c2ccc3cc(C(F)(F)F)ccc3n2)ccc1N(C)C(=O)c1ccn[nH]1 [Example 205, N-methyl-N-[2-methyl-4-[6-(trifluoromethyl)quinolin-2-yl]phenyl]-1H-pyrazole-5-carboxamide]
< 200 nM | COc1cnccc1C(=O)Nc1ccc(-c2ncc3cc(C(F)(F)F)ccc3n2)cc1C [Example 144, 3-methoxy-N-(2-methyl-4-(6-(trifluoromethyl)quinazolin-2-yl)phenyl)isonicotinamide]
< 200 nM | Cc1cc(-c2ccc3cc(C(F)(F)F)ccc3n2)ccc1N(C)C(=O)c1ccnn1C [Example 002, N,1-Dimethyl-N-(2-methyl-4-(6-(trifluoromethyl)quinolin-2-yl)phenyl)-1H-pyrazole-5-carboxamide]
